Test results taken from the NIST ThermoML archive (doi:10.1016/j.fluid.2015.09.030).
Numbers after ± are expanded uncertainties. Values belong to the compound of their own block, whether it stands above or below them.

Conditions: Liquid, Ebulliometric method (Recirculating still)

SMILES: c1ccccc1 [benzene]
vapor or sublimation pressure (353.15 K): 101.33 ± 0.46 kPa

SMILES: Cc1cc(C)cc(C)c1 [1,3,5-trimethylbenzene]
vapor or sublimation pressure (437.83 K): 101.33 ± 0.46 kPa

SMILES: CCc1cccs1 [2-ethylthiophene]
vapor or sublimation pressure (407.14 K): 101.33 ± 0.46 kPa

SMILES: Cc1ccc(C)s1 [2,5-dimethylthiophene]
vapor or sublimation pressure (409.96 K): 101.33 ± 0.46 kPa

The remaining lines, values ahead:

vapor or sublimation pressure (351.45 K): 101.33 ± 0.46 kPa
SMILES: CCO [ethanol]

vapor or sublimation pressure (447.46 K): 101.33 ± 0.46 kPa
SMILES: CCCCCCCCCC [decane]
